Results as given in patent publication US7153826B2, “Treatment of rosacea” (Seatek Marine Biotechnology, Inc., priority 2000, dated 2006).
[ ]: non-standard residue; d: D form. Orn = NCCC[C@H](N)C(=O)O

Experiments:
rosacea [1] = assay: Topical treatment of a human subject with moderately severe rosacea and pustular lesions (Example 1); format: in vivo
Description: The effectiveness of a cyclic decapeptide antibiotic for treating rosacea was determined on a human subject afflicted, for two years duration, with moderately severe rosacea and pustular lesions. […] The subject received topical metronidazole in a carbomer gel composition (Metrogel™) applied in the morning. Topical loloatin B (which was obtained by fermentation of the Bacillus deposited as ATCC 55797 generally following the methods described in WO98/04584) was applied in the evening. The loloatin was first dissolved in a minimal amount of alcohol which was then mixed with Lubriderm™ lotion to provide 1% w/v formulation.

rosacea [2] = conditions: metronidazole administered topically twice daily; cited from earlier work
rosacea [3] = assay: Topical treatment of a subject afflicted with rosacea, two-year trial period (Example 2); format: in vivo, human
Description: A subject afflicted with rosacea received topical Metrogel™ overlayed with Lubriderm™ lotion in the morning and 1% loloatin B formulated in Lubriderm™ (as described above) in the evening. […] With this combined treatment, the rosacea was controlled such that only a few lesions were present at any given time, and complete remissions of several days duration became common.

Molecule | benefit of previous treatments (rosacea [1]; previous treatments with metronidazole, same subject) | patients who do not benefit from treatment (rosacea [2]) | improvement in the rosacea on reinstituting the regimen (rosacea [1]; each time once daily Metrogel and once daily loloatin was reinstituted) | improvement in the rosacea (rosacea [1]; topical Metrogel in the morning plus 1% w/v loloatin B in Lubriderm lotion in the evening, after one month) | control of the condition (rosacea [3]; combined Metrogel morning / 1% loloatin B evening, throughout the trial period (two years)) | healing time of the lesions (rosacea [3]; combined treatment Metrogel morning / 1% loloatin B evening) | course of the rosacea (rosacea [3]; topical Metrogel overlayed with Lubriderm in the morning plus 1% loloatin B in Lubriderm in the evening)
Cc1ncc([N+](=O)[O-])n1CCO [metronidazole, reference compound] | without benefit | about 50% | – | – | – | – | –
cyclo[L-Val-L-Orn-L-Leu-D-Tyr-L-Pro-L-Phe-D-Phe-L-Asn-L-Asp-L-Trp] (cyclo(V[Orn]L[dY]PF[dF]NDW); SMILES CC(C)C[C@@H]1NC(=O)[C@H](CCCN)NC(=O)[C@H](C(C)C)NC(=O)[C@H](Cc2c[nH]c3ccccc23)NC(=O)[C@H](CC(=O)O)NC(=O)[C@H](CC(N)=O)NC(=O)[C@@H](Cc2ccccc2)NC(=O)[C@H](Cc2ccccc2)NC(=O)[C@@H]2CCCN2C(=O)[C@@H](Cc2ccc(O)cc2)NC1=O) [loloatin B] | – | – | significant improvement | Significant improvement | effectively controlled | 2 to 3 days | Progressive improvement
